Key:
Assay in all cases: relative viability (nuclei count vs DMSO), 5 days (fraction); higher = more cells survive
Vemurafenib + Foretinib = compound: CCCS(=O)(=O)Nc1ccc(F)c(C(=O)c2c[nH]c3ncc(-c4ccc(Cl)cc4)cc23)c1F [Vemurafenib] + COc1cc2c(Oc3ccc(NC(=O)C4(C(=O)Nc5ccc(F)cc5)CC4)cc3F)ccnc2cc1OCCCN1CCOCC1 [Foretinib] (partner 0.25 µM)
Method in brief: (§1)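 Lung cancer cell lines were pin-tool dosed in 1536-well plates on the day after seeding, with either a lone drug or a fixed anchor-drug dose plus five library-drug doses (not always all listed) in √10 steps. Nuclei were counted on 4× images after 5 days. Relative viability is the ratio of treated-well to vehicle-well nuclei counts, with each value a median of duplicate plates.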

Alpelisib + Foretinib = compound: Cc1nc(NC(=O)N2CCC[C@H]2C(N)=O)sc1-c1ccnc(C(C)(C)C(F)(F)F)c1 [Alpelisib] + COc1cc2c(Oc3ccc(NC(=O)C4(C(=O)Nc5ccc(F)cc5)CC4)cc3F)ccnc2cc1OCCCN1CCOCC1 [Foretinib] (partner 0.25 µM)
Method in brief: as §1

Vemurafenib + Decitabine = compound: CCCS(=O)(=O)Nc1ccc(F)c(C(=O)c2c[nH]c3ncc(-c4ccc(Cl)cc4)cc23)c1F [Vemurafenib] + Nc1ncn([C@H]2C[C@H](O)[C@@H](CO)O2)c(=O)n1 [Decitabine] (partner 2 µM)
Method in brief: as §1

Vemurafenib + Pemetrexed = compound: CCCS(=O)(=O)Nc1ccc(F)c(C(=O)c2c[nH]c3ncc(-c4ccc(Cl)cc4)cc23)c1F [Vemurafenib] + Nc1nc2[nH]cc(CCc3ccc(C(=O)N[C@@H](CCC(=O)O)C(=O)O)cc3)c2c(=O)[nH]1 [Pemetrexed] (partner 0.2 µM)
Method in brief: as §1

Cell Line	relative viability (Vemurafenib + Foretinib; first compound 0.03162 µM)	relative viability (Vemurafenib + Foretinib; first compound 0.3162 µM)	relative viability (Vemurafenib + Foretinib; first compound 1 µM)	relative viability (Alpelisib + Foretinib; first compound 0.04 µM)	relative viability (Alpelisib + Foretinib; first compound 0.1265 µM)	relative viability (Alpelisib + Foretinib; first compound 0.4 µM)	relative viability (Alpelisib + Foretinib; first compound 1.265 µM)	relative viability (Alpelisib + Foretinib; first compound 4 µM)	relative viability (Vemurafenib + Decitabine; first compound 0.03162 µM)	relative viability (Vemurafenib + Decitabine; first compound 0.3162 µM)	relative viability (Vemurafenib + Decitabine; first compound 1 µM)	relative viability (Vemurafenib + Pemetrexed; first compound 0.03162 µM)	relative viability (Vemurafenib + Pemetrexed; first compound 0.3162 µM)	relative viability (Vemurafenib + Pemetrexed; first compound 1 µM)	relative viability (Vemurafenib + Foretinib; first compound 0.1 µM)	relative viability (Vemurafenib + Decitabine; first compound 0.1 µM)	relative viability (Vemurafenib + Pemetrexed; first compound 0.1 µM)
EKVX	0.617	0.745	0.703	0.519	0.726	0.66	0.67	0.73	0.368	0.37	0.397	0.379	0.405	0.442	–	–	–
EMC-BAC-2	1.06	0.832	1.03	0.973	0.867	1.01	0.689	0.592	0.958	–	0.96	0.447	0.358	0.437	0.862	0.934	0.475
NCI-H520	0.702	0.897	0.626	0.682	0.928	0.838	0.605	0.582	0.463	0.479	0.519	0.689	0.532	0.608	0.763	0.482	0.643
NCI-H322M	0.923	–	1.02	0.909	0.867	0.927	0.619	0.678	0.721	0.86	0.707	0.587	0.597	0.537	–	–	–
COR-L 105	1.04	–	0.978	1.08	1.26	1.02	1	1.08	0.556	0.645	0.651	0.939	1.2	1.05	–	–	–
NCI-H2170	0.907	1	1.02	0.978	0.914	1.12	0.922	0.622	0.435	0.441	0.455	0.272	0.265	0.289	0.858	–	–
NCI-H358	0.638	0.886	0.858	0.622	0.674	0.684	0.567	0.353	0.211	0.226	0.229	0.208	0.189	0.193	0.494	0.228	0.179
NCI-H1793	0.789	0.709	0.922	0.733	0.666	0.77	0.402	0.42	0.449	0.672	0.492	0.797	0.749	1.12	–	0.325	0.602
NCI-H2405	1	–	1.03	1.1	1	1.1	0.849	0.711	0.668	–	0.736	1.02	–	1.17	1.03	0.678	0.977
201T	0.984	1.06	1.1	1.11	1.06	1.29	0.841	0.71	0.821	0.886	0.799	0.375	0.322	0.283	1	0.825	0.378
H3255	0.945	0.827	0.96	0.973	0.753	0.96	0.695	0.562	0.524	0.604	0.605	0.551	0.515	0.566	–	–	–
NCI-H1395	1.02	–	1.01	0.889	1.04	1.01	0.897	0.988	0.726	0.706	0.72	0.679	0.757	0.814	0.976	0.698	0.744
NCI-H1355	0.922	1	1.03	0.951	0.926	1.04	0.851	0.77	0.344	0.363	0.37	1.03	1.02	1.04	0.924	0.348	0.961
HCC-827	0.911	1.12	1.04	1	1.05	0.968	0.964	0.746	0.27	0.326	0.35	0.273	0.287	0.238	–	–	–
NCI-H2085	0.856	1.26	0.902	0.93	0.845	1.05	1.07	0.833	0.495	0.536	0.597	0.764	0.585	1.04	0.92	0.529	0.6
NCI-H1755	0.882	0.891	0.832	0.95	0.924	0.962	0.785	0.731	0.705	0.73	0.711	0.512	0.422	0.398	0.889	0.616	0.453
PC-14	0.882	0.876	0.942	0.914	1.01	0.977	0.807	0.832	0.223	0.181	0.237	0.147	0.126	0.134	–	–	–
NCI-H3122	0.992	1.02	1.07	1.02	0.884	0.987	0.867	0.821	0.429	0.481	0.504	0.206	0.214	0.203	0.957	0.485	0.188
SK-LU-1	0.706	0.647	0.705	0.831	0.796	0.854	0.453	0.681	0.638	0.504	0.56	0.928	0.861	0.974	0.709	0.588	0.891
NCI-H460	0.96	0.909	1.05	0.998	1.02	1.08	0.929	0.795	0.435	0.485	0.501	0.0604	0.065	0.0749	0.982	0.511	0.058

Cell Line	relative viability (Vemurafenib + Foretinib; first compound 0.03162 µM)	relative viability (Vemurafenib + Foretinib; first compound 0.3162 µM)	relative viability (Vemurafenib + Foretinib; first compound 1 µM)	relative viability (Alpelisib + Foretinib; first compound 0.04 µM)	relative viability (Alpelisib + Foretinib; first compound 0.1265 µM)	relative viability (Alpelisib + Foretinib; first compound 0.4 µM)	relative viability (Alpelisib + Foretinib; first compound 1.265 µM)	relative viability (Alpelisib + Foretinib; first compound 4 µM)	relative viability (Vemurafenib + Decitabine; first compound 0.03162 µM)	relative viability (Vemurafenib + Decitabine; first compound 0.3162 µM)	relative viability (Vemurafenib + Decitabine; first compound 1 µM)	relative viability (Vemurafenib + Pemetrexed; first compound 0.03162 µM)	relative viability (Vemurafenib + Pemetrexed; first compound 0.3162 µM)	relative viability (Vemurafenib + Pemetrexed; first compound 1 µM)	relative viability (Vemurafenib + Foretinib; first compound 0.1 µM)	relative viability (Vemurafenib + Decitabine; first compound 0.1 µM)	relative viability (Vemurafenib + Pemetrexed; first compound 0.1 µM)
NCI-H1915	1.09	1.03	1	1.12	1.1	1.15	1.03	1.09	0.244	0.26	0.244	0.493	0.434	0.454	1.05	0.253	0.494
NCI-H2126	1.13	1.31	1.09	1.05	1.01	1.04	1.07	0.904	0.559	0.599	0.552	0.627	0.684	0.777	0.696	0.542	0.662
EPLC-272H	0.614	0.873	0.685	0.723	0.674	0.754	0.376	0.422	0.337	0.472	0.399	0.319	0.396	0.328	0.435	0.367	0.336
LCLC-103H	0.668	0.704	0.69	0.67	0.758	0.652	0.567	0.471	0.698	0.717	0.75	0.495	0.377	0.456	0.685	0.714	0.515
NCI-H661	1.06	1.08	0.965	1.02	1.05	1.08	1.02	0.92	0.521	0.567	0.625	1.01	0.978	0.929	0.956	0.495	0.929
PC-3 [JPC-3]	0.911	1.05	1.13	1.08	1	1.07	0.987	0.971	–	0.81	0.888	–	0.92	1.25	–	–	–
NCI-H2087	1.02	–	1.12	0.903	1.07	1.31	0.814	0.614	0.198	0.346	0.336	0.646	0.544	0.678	0.979	0.273	0.63
NCI-H1666	0.99	0.993	0.925	1	1.02	1.05	0.801	0.74	0.612	0.686	0.764	0.805	0.913	0.843	0.87	0.724	0.847
NCI-H2009	1.19	1.06	1.06	1.23	1.2	1.25	1.1	1.1	0.394	0.341	0.438	1.13	0.869	0.915	1.18	0.341	0.897
SK-MES-1	0.91	0.879	0.795	0.799	0.864	0.904	0.809	0.525	0.384	0.38	0.386	0.891	0.858	0.92	0.461	0.334	–
LCLC-97TM1	0.974	0.985	0.971	0.879	0.913	0.883	0.73	0.449	–	0.242	0.213	–	0.185	0.149	0.854	0.236	0.163
NCI-H596	0.921	0.695	0.922	0.769	0.677	0.731	0.457	0.431	0.974	0.922	0.864	0.501	0.405	0.583	0.643	0.959	0.494
BEN	0.534	–	0.621	0.792	0.401	0.732	0.737	0.521	0.577	0.366	0.675	0.627	0.445	0.619	0.575	0.756	0.832
LU99A	0.87	0.819	0.723	0.746	0.832	0.722	0.661	0.503	0.843	–	0.719	0.229	–	0.199	0.867	0.907	0.196
RERF-LC-KJ	0.858	0.875	0.876	0.779	0.773	0.893	0.716	0.696	0.639	0.632	0.716	0.501	0.441	0.48	0.816	0.678	0.486
SW 900	1.11	0.801	0.924	1.22	0.991	0.79	0.885	0.843	0.428	0.439	0.466	0.494	0.457	0.478	0.693	0.346	0.466
NCI-H1944	0.868	0.879	0.837	0.786	0.96	0.881	0.581	0.43	0.488	0.45	0.456	0.596	0.564	0.569	0.614	–	–
HARA	0.858	0.945	0.559	0.914	0.888	0.879	0.682	0.533	0.458	0.673	0.703	0.24	0.2	0.246	0.634	0.368	0.234
A-427	1.01	1.06	1.18	1.19	0.833	1.11	0.831	0.992	0.553	–	0.591	0.866	–	1.1	0.951	0.456	0.918

— the supplement of paper PMC10307832
